Assay results published in patent US20030096760A1, “Method of antagonizing the human SRC SH2 domain” (SmithKlineBeecham Corporation, priority 1997, published 2003).
*1 amine or outer side, *2 acyl side, *3 side chain or, on linkers, in order; H or OH if unused. Where a SMILES comes first, the peptide text is derived from it. [ ]: non-standard residue; d: D form. X1 = O=C1OC(O)c2cc(C[C@H](N[*:1])C(=O)[*:2])ccc21

Target: T1, human src SH2 domain (Homo sapiens, UniProt P12931)
T1 construct: made in house; host or cells: E. coli strain AR120 (vector pEA1KnRBS3)
T1 sequence (P12931 151-248 limits assumed): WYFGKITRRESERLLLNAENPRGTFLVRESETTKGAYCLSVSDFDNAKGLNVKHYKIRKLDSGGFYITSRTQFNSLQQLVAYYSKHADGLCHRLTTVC
Test: ELISA-based binding assay of human src SH2 domain fusion protein and biotinylated pY peptide
Conditions: DET1-DET2-spacer-ek-src SH2 fusion protein; 0.1 uM biotinylated pY peptide; 3 hr at 4° C.; read-out: Activity at cloned human Src SH2 domain (IC50)
Procedure: The inhibitory activity of compounds at the human src SH2 domain was determined in vitro using the human src SH2 domain expressed as fusion proteins in E. coli.
The fusion protein containing the human SH2 domain was expressed as the general sequence: DET1-DET2-spacer-ek-SH2, where DET1, DET2, spacer, ek and SH2 are as described below. DET1 (“defined epitope tag 1”) (SEQ ID NO: 1) is an 11 amino acid sequence found in the Human Immunodeficiency Virus Type 1 (HIV-1) envelope protein gp120 (or gp160). Monoclonal antibodies to various epitopes of HIV-1 gp120 (or gp160) are known in the art, see, for example U.S. Pat. No. 5,166,050. One preferred example is monoclonal antibody 178.1 (see, e.g., Thiriart et al., J. Immunol., 143:1832-1836 (1989)), which was prepared by immunization of mice with a yeast-expressed HIV-1 gp160 molecule from strain BH10 (Ratner et al., Nature, 313:277-284 (1985)). This tag was used for detection of expression (by Western blot), for purification of the protein (by affinity chromatography), and for configuring assays in which the fusion protein was captured or immobilized using the 178.1 antibody. DET2 is a hexa-histidine sequence tag (SEQ ID NO: 2) which binds to nickel-containing resins and was used for purification purposes. Spacer (SEQ ID NO: 3) was utilized to design a BamH1 restriction site at the indicated position of the construct. […]

IC50: 250 nM
SMILES: CC[C@H](C)[C@H](NC(=O)[C@H](CCC(=O)O)NC(=O)[C@H](CCC(=O)O)NC(=O)[C@H](Cc1ccc2c(c1)C(O)OC2=O)NC(C)=O)C(=O)N[C@@H](CCC(=O)O)C(N)=O (stereo partly drawn) [Compound 1, (S)-alpha-(acetylamino)-1,3-dihydro-3-hydroxy-1-oxo-5-isobenzofuranpropanamido-glutamate-glutamate-isoleucine-glutamate-amine] (Ac-[X1]EEIE-NH2)
